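All cell lines were grown in 96-well plates and treated with compound for 48 hours. TGI denotes the concentration required for complete inhibition of growth.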
Tests used:
Test in all cases: inhibition of tumour cell growth, NCI panel, 48 h
U251 CNS = tested on: U251 CNS
LXFL 529 NSCLC = tested on: LXFL 529 NSCLC
OVCAR-3 ovarian = tested on: OVCAR-3 ovarian
DLD-1 colon = tested on: DLD-1 colon
NCI-H226 lung = tested on: NCI-H226 lung
DMS 114 small cell lung = tested on: DMS 114 small cell lung
SK-MEL-28 melanoma = tested on: SK-MEL-28 melanoma
HL-60(TB) leukemia = tested on: HL-60(TB) leukemia
SF-539 CNS = tested on: SF-539 CNS
KM12 colon = tested on: KM12 colon
RPMI-8226 leukemia = tested on: RPMI-8226 leukemia
OVCAR-5 ovarian = tested on: OVCAR-5 ovarian
HOP-18 NSCLC = tested on: HOP-18 NSCLC
M19-MEL melanoma = tested on: M19-MEL melanoma
COLO 205 colon = tested on: COLO 205 colon
HCC-2998 colon = tested on: HCC-2998 colon
SN12C renal = tested on: SN12C renal
M14 melanoma = tested on: M14 melanoma
ACHN renal = tested on: ACHN renal
MOLT-4 leukemia = tested on: MOLT-4 leukemia
MALME-3M melanoma = tested on: MALME-3M melanoma
UACC-62 melanoma = tested on: UACC-62 melanoma
HOP-62 NSCLC = tested on: HOP-62 NSCLC
CCRF-CEM leukemia = tested on: CCRF-CEM leukemia
OVCAR-8 ovarian = tested on: OVCAR-8 ovarian
HT29 colon = tested on: HT29 colon
A549 NSCLC = tested on: A549 NSCLC
SR leukemia = tested on: SR leukemia
SF-295 CNS = tested on: SF-295 CNS
NCI-H23 lung = tested on: NCI-H23 lung
SNB-75 CNS = tested on: SNB-75 CNS
KM20L2 colon = tested on: KM20L2 colon
SF-268 CNS = tested on: SF-268 CNS
SK-OV-3 ovarian = tested on: SK-OV-3 ovarian
NCI-H522 lung = tested on: NCI-H522 lung
HCT-116 colon = tested on: HCT-116 colon
IGROV1 ovarian = tested on: IGROV1 ovarian
UACC-257 melanoma = tested on: UACC-257 melanoma
786-0 renal = tested on: 786-0 renal
HCT-15 colon = tested on: HCT-15 colon
SNB-19 CNS = tested on: SNB-19 CNS
SW-620 colon = tested on: SW-620 colon
SNB-78 CNS = tested on: SNB-78 CNS
EKVX NSCLC = tested on: EKVX NSCLC
SK-MEL-5 melanoma = tested on: SK-MEL-5 melanoma
NCI-H460 lung = tested on: NCI-H460 lung
OVCAR-4 ovarian = tested on: OVCAR-4 ovarian
XF 498 CNS = tested on: XF 498 CNS
LOX IMVI melanoma = tested on: LOX IMVI melanoma
TK-10 renal = tested on: TK-10 renal
RXF 393 renal = tested on: RXF 393 renal
A498 renal = tested on: A498 renal
DMS 273 small cell lung = tested on: DMS 273 small cell lung
UO-31 renal = tested on: UO-31 renal
K-562 leukemia = tested on: K-562 leukemia
HOP-92 NSCLC = tested on: HOP-92 NSCLC

COc1ccccc1N=Nc1c(-c2ccccc2)nn(C(=O)CC(=O)Nc2ccccc2Cl)c1-c1ccccc1
TGI (U251 CNS): > 100 µM | TGI (LXFL 529 NSCLC): > 100 µM | TGI (OVCAR-3 ovarian): > 100 µM | TGI (DLD-1 colon): > 100 µM | TGI (NCI-H226 lung): > 100 µM | TGI (DMS 114 small cell lung): > 100 µM | TGI (SK-MEL-28 melanoma): > 100 µM | TGI (HL-60(TB) leukemia): > 100 µM | TGI (SF-539 CNS): > 100 µM | TGI (KM12 colon): > 100 µM | TGI (RPMI-8226 leukemia): > 100 µM | TGI (OVCAR-5 ovarian): > 100 µM | TGI (HOP-18 NSCLC): > 100 µM | TGI (M19-MEL melanoma): > 100 µM | TGI (COLO 205 colon): > 100 µM | TGI (HCC-2998 colon): > 100 µM | TGI (SN12C renal): > 100 µM | TGI (M14 melanoma): > 100 µM | TGI (ACHN renal): > 100 µM | TGI (MOLT-4 leukemia): > 100 µM | TGI (MALME-3M melanoma): > 100 µM | TGI (UACC-62 melanoma): > 100 µM | TGI (HOP-62 NSCLC): > 100 µM | TGI (CCRF-CEM leukemia): > 100 µM | TGI (OVCAR-8 ovarian): > 100 µM | TGI (HT29 colon): > 100 µM | TGI (A549 NSCLC): > 100 µM | TGI (SR leukemia): > 100 µM | TGI (SF-295 CNS): > 100 µM | TGI (NCI-H23 lung): > 100 µM | TGI (SNB-75 CNS): > 100 µM | TGI (KM20L2 colon): > 100 µM | TGI (SF-268 CNS): > 100 µM | TGI (SK-OV-3 ovarian): > 100 µM | TGI (NCI-H522 lung): > 100 µM | TGI (HCT-116 colon): > 100 µM | TGI (IGROV1 ovarian): > 100 µM | TGI (UACC-257 melanoma): > 100 µM | TGI (786-0 renal): > 100 µM | TGI (HCT-15 colon): > 100 µM | TGI (SNB-19 CNS): > 100 µM | TGI (SW-620 colon): > 100 µM | TGI (SNB-78 CNS): > 100 µM | TGI (EKVX NSCLC): > 100 µM | TGI (SK-MEL-5 melanoma): > 100 µM | TGI (NCI-H460 lung): > 100 µM | TGI (OVCAR-4 ovarian): > 100 µM | TGI (XF 498 CNS): > 100 µM | TGI (LOX IMVI melanoma): > 100 µM | TGI (TK-10 renal): > 100 µM | TGI (RXF 393 renal): > 100 µM | TGI (A498 renal): > 100 µM | TGI (DMS 273 small cell lung): > 100 µM | TGI (UO-31 renal): > 100 µM | TGI (K-562 leukemia): > 100 µM

COc1ccc(-c2cc(=O)c3c(O)c(OC)c(O)c(OC)c3o2)cc1OC
TGI (U251 CNS): > 100 µM | TGI (LXFL 529 NSCLC): > 100 µM | TGI (DLD-1 colon): > 100 µM | TGI (NCI-H226 lung): > 100 µM | TGI (DMS 114 small cell lung): > 100 µM | TGI (SK-MEL-28 melanoma): > 100 µM | TGI (HL-60(TB) leukemia): > 100 µM | TGI (SF-539 CNS): > 100 µM | TGI (RPMI-8226 leukemia): > 100 µM | TGI (HOP-18 NSCLC): > 100 µM | TGI (M19-MEL melanoma): > 100 µM | TGI (COLO 205 colon): > 100 µM | TGI (HCC-2998 colon): > 100 µM | TGI (SN12C renal): > 100 µM | TGI (M14 melanoma): > 100 µM | TGI (ACHN renal): > 100 µM | TGI (MOLT-4 leukemia): > 100 µM | TGI (MALME-3M melanoma): > 100 µM | TGI (UACC-62 melanoma): > 100 µM | TGI (HOP-62 NSCLC): > 100 µM | TGI (CCRF-CEM leukemia): > 100 µM | TGI (OVCAR-8 ovarian): > 100 µM | TGI (HT29 colon): > 100 µM | TGI (A549 NSCLC): > 100 µM | TGI (SR leukemia): > 100 µM | TGI (SF-295 CNS): > 100 µM | TGI (NCI-H23 lung): > 100 µM | TGI (SNB-75 CNS): > 100 µM | TGI (KM20L2 colon): > 100 µM | TGI (SF-268 CNS): > 100 µM | TGI (SK-OV-3 ovarian): > 100 µM | TGI (NCI-H522 lung): 42.8 µM | TGI (HCT-116 colon): > 100 µM | TGI (HOP-92 NSCLC): > 100 µM | TGI (IGROV1 ovarian): > 100 µM | TGI (UACC-257 melanoma): > 100 µM | TGI (786-0 renal): > 100 µM | TGI (HCT-15 colon): > 100 µM | TGI (SNB-19 CNS): > 100 µM | TGI (SW-620 colon): > 100 µM | TGI (SNB-78 CNS): > 100 µM | TGI (EKVX NSCLC): > 100 µM | TGI (SK-MEL-5 melanoma): > 100 µM | TGI (OVCAR-4 ovarian): > 100 µM | TGI (XF 498 CNS): > 100 µM | TGI (RXF 393 renal): 55.6 µM | TGI (A498 renal): > 100 µM | TGI (DMS 273 small cell lung): > 100 µM | TGI (UO-31 renal): > 100 µM | TGI (K-562 leukemia): > 100 µM
